Experiment [1] addresses T1, Bombesin receptor subtype-3 (Homo sapiens, UniProt P32247).
T1 sequence (P32247 whole entry): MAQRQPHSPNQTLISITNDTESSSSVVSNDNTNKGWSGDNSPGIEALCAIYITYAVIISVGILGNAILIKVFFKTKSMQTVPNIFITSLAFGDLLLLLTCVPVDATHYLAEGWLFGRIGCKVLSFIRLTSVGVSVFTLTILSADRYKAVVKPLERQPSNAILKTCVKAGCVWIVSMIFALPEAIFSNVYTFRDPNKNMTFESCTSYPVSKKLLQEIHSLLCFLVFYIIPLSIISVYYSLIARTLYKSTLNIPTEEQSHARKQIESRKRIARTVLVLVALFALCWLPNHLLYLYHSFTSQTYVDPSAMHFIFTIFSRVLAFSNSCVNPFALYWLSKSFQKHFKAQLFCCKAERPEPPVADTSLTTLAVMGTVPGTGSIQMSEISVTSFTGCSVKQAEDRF

For experiment [2], the target named is Gastrin-releasing peptide receptor (Rattus norvegicus, UniProt P52500).
The next experiment concerns the target T2, Neuromedin-B receptor (Rattus norvegicus, UniProt P24053).
T2 sequence (P24053 whole entry): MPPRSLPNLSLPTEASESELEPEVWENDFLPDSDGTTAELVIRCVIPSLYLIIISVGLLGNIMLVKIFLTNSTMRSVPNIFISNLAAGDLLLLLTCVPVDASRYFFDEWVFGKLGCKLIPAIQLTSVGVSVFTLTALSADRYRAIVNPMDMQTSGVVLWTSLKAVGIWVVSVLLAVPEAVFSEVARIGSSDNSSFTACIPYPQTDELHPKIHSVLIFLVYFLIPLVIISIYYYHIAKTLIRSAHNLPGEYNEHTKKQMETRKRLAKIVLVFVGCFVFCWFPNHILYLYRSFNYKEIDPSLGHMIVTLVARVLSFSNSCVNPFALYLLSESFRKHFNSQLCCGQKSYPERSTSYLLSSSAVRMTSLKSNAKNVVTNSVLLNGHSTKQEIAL

Experiment [3] addresses Gastrin-releasing peptide receptor (Mus musculus, UniProt P21729).

Several values for one entry are separate records, joined by “and”; a condition that tells them apart may be missing. Equal values may be shown once. Where a SMILES comes first, the peptide text is derived from it. Bridges are numbered along the chain shown (N, C = ends). [ ]: non-standard residue; d: D form. The star is where a group is joined. X1 = CC(C)C[C@@H](CN[C@@H](CC(C)C)C(N)=O)N*; 2Nal = N[C@@H](Cc1ccc2ccccc2c1)C(=O)O; d2Nal = N[C@H](Cc1ccc2ccccc2c1)C(=O)O; pGlu = O=C1CC[C@@H](C(=O)O)N1; Nle = CCCC[C@H](N)C(=O)O; βAla = NCCC(=O)O

Sequence of Gastrin-releasing peptide receptor (Mus musculus, UniProt P21729) (P21729 whole entry): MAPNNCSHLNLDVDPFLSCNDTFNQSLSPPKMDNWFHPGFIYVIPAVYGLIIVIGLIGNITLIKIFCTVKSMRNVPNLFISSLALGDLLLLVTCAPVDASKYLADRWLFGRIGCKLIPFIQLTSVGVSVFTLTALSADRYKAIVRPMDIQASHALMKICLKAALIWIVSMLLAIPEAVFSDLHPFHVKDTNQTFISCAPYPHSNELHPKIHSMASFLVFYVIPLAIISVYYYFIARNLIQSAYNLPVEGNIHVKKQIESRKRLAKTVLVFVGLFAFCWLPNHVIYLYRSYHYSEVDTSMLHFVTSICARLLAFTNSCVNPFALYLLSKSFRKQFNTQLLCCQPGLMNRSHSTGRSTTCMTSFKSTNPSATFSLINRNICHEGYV
Sequence of Gastrin-releasing peptide receptor (Rattus norvegicus, UniProt P52500) (P52500 whole entry N28S): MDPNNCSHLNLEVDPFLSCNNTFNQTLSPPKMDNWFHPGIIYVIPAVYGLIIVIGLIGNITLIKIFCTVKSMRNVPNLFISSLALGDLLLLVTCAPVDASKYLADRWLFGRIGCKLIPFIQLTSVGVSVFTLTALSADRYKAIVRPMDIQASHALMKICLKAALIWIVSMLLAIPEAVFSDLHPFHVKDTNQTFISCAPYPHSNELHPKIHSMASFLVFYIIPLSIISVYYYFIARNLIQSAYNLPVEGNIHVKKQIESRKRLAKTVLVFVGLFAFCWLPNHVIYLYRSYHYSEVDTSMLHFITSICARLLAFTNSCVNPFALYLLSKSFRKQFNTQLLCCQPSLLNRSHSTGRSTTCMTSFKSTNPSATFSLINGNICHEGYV

On to `CC(C)[C@@H]1NC(=O)[C@H](CCCCN)NC(=O)[C@@H](Cc2c[nH]c3ccccc23)NC(=O)[C@H](Cc2ccc(O)cc2)NC(=O)[C@H](NC(=O)[C@H](N)Cc2ccc3ccccc3c2)CSSC[C@@H](C(=O)N[C@@H](Cc2ccc3ccccc3c2)C(N)=O)NC1=O` [H-Nal-cyclo[DCys-Tyr-DTrp-Lys-Val-Cys]-Nal-NH2] (H-[d2Nal][dC]Y[dW]KVC[2Nal]-NH2; disulfide 2-7), for which the Ki was 2800 nM in experiment [1], greater than 10000 nM in experiment [2] and 220 nM at Neuromedin-B receptor.
Take `CCCC[C@H](NC(=O)[C@H](Cc1ccccc1)NC(=O)[C@H](Cc1c[nH]cn1)NC(=O)CCNC(=O)[C@@H](NC(=O)[C@H](C)NC(=O)[C@H](Cc1c[nH]c2ccccc12)NC(=O)[C@H](CCC(N)=O)NC(=O)[C@H](N)Cc1ccccc1)C(C)C)C(N)=O` [DPhe6,BetaAla11,Phe13,Nle14-Bn(6-14)] (H-[dF]QWAV[βAla]HF[Nle]-NH2): the Ki in experiment [3] was 0.26 nM and 0.24 nM and 0.19 nM and 0.11 nM; in experiment [1], 8.9 nM; in experiment [2] it was 0.99 nM; on Neuromedin-B receptor it was 0.36 nM.
As to `CC(C)C[C@H](NC(=O)[C@H](CC(C)C)NC(=O)[C@@H](Cc1c[nH]c2ccccc12)NC(=O)[C@H](Cc1ccccc1)NC(=O)[C@@H](Cc1c[nH]c2ccccc12)NC(=O)[C@H](CCC(N)=O)NC(=O)[C@H](CCC(N)=O)NC(=O)[C@@H]1CCCN1C(=O)[C@H](CCCCN)NC(=O)[C@@H]1CCCN1C(=O)[C@H](N)CCCN=C(N)N)C(N)=O` [Substance P,[DArg1,DTrp7,9,Leu11]] (H-[dR]PKPQQ[dW]F[dW]LL-NH2), the Ki is greater than 10000 nM in experiment [1], 11300 nM in experiment [2] and 4100 nM at Neuromedin-B receptor.
The like results for `CC(C)C[C@@H](CN[C@@H](CC(C)C)C(N)=O)NC(=O)[C@H](Cc1cnc[nH]1)NC(=O)CNC(=O)[C@@H](NC(=O)[C@H](C)NC(=O)[C@H](Cc1c[nH]c2ccccc12)NC(=O)[C@H](CCC(N)=O)NC(=O)[C@H](CC(N)=O)NC(=O)CNC(=O)[C@H](CC(C)C)NC(=O)[C@H](CCCN=C(N)N)NC(=O)[C@H](CCC(N)=O)NC(=O)[C@@H]1CCC(=O)N1)C(C)C` [Leu13,Psi(CH2NH),Leu14-BN] ([pGlu]QRLGNQWAVGH-X1) were, in that order, greater than 10000 nM, 430 nM and greater than 10000 nM.
The matching figures for `CC(C)C[C@H](NC(=O)[C@H](Cc1cnc[nH]1)NC(=O)CNC(=O)[C@@H](NC(=O)[C@H](C)NC(=O)[C@H](Cc1c[nH]c2ccccc12)NC(=O)[C@H](CCC(N)=O)NC(=O)[C@@H](Cc1ccccc1)NC(=O)CNC(=O)[C@H](CC(C)C)NC(=O)[C@H](CCCN=C(N)N)NC(=O)[C@H](CCC(N)=O)NC(=O)[C@@H]1CCC(=O)N1)C(C)C)C(N)=O` [DPhe6-Bn(1-13)NH2]: greater than 10000 nM, 450 nM and greater than 10000 nM.
The matching figures for `CC(C)C[C@H](NC(=O)[C@H](CC(C)C)NC(=O)[C@@H](Cc1ccccc1)NC(=O)CNC(=O)[C@@H](NC(=O)[C@H](C)NC(=O)[C@H](Cc1c[nH]c2ccccc12)NC(=O)[C@H](CCC(N)=O)NC(=O)[C@@H](Cc1ccccc1)NC(=O)CNC(=O)[C@H](CC(C)C)NC(=O)[C@H](CCCN=C(N)N)NC(=O)[C@H](CCC(N)=O)NC(=O)[C@@H]1CCC(=O)N1)C(C)C)C(N)=O` [DPhe6,12,Leu14-Bn]: greater than 10000 nM, 430 nM and 2300 nM.
For the molecule `CSCC[C@H](NC(=O)[C@H](Cc1ccccc1)NC(=O)[C@H](Cc1c[nH]cn1)NC(=O)CNC(=O)[C@@H](NC(=O)[C@H](C)NC(=O)[C@H](Cc1c[nH]c2ccccc12)NC(=O)[C@H](CCC(N)=O)NC(=O)[C@@H]1CCCN1C(=O)[C@@H](NC(=O)[C@@H]1CCC(=O)N1)C(C)C)C(C)C)C(N)=O` [CAS_29451-71-6] ([pGlu]VPQWAVGHFM-NH2), the Ki in experiment [1] was 6900 nM; in experiment [2] it was 2 nM; on Neuromedin-B receptor, 13 nM.
The matching figures for `CC(C)C[C@H](NC(=O)[C@H](Cc1cnc[nH]1)NC(=O)CNC(=O)[C@@H](NC(=O)[C@H](C)NC(=O)[C@H](Cc1c[nH]c2ccccc12)NC(=O)[C@H](CCC(N)=O)NC(=O)[C@H](N)Cc1ccccc1)C(C)C)C(=O)NN` [DPhe6-Bn(6-13)hydrazide]: greater than 10000 nM, 1200 nM and greater than 10000 nM.
The matching figures for `CSCC[C@H](NC(=O)[C@H](Cc1ccccc1)NC(=O)[C@H](Cc1c[nH]cn1)NC(=O)CNC(=O)[C@@H](NC(=O)[C@H](C)NC(=O)[C@H](Cc1c[nH]c2ccccc12)NC(=O)[C@H](CCC(N)=O)NC(=O)[C@@H]1CCC(=O)N1)C(C)C)C(N)=O` [CAS_5486808]: 4100 nM, 6 nM and 7 nM.
